From patent US9409905B2, “Antibacterial compounds and methods for use” (PTC THERAPEUTICS, INC., priority 2011, dated 2016)
≈ marks a conversion by molar mass, not a printed value.

Assays:
[1] = test system: Escherichia coli (E. coli) BAS849; assay: Antibacterial activity, microbroth dilution MIC (Table 1); assay type: cell-based; conditions: microbroth dilution, super sensitive Gram-negative E. coli BAS849, read-out: MIC, BAS849
How it was run: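 In a microbroth dilution test, the minimum inhibitory concentration was defined as the lowest compound level preventing growth seen by eye, and was given in μg/mL.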

[2] = test system: Staphylococcus aureus (S. aureus) 29213; assay: as above; assay type: cell-based; conditions: microbroth dilution, Gram-positive S. aureus 29213, read-out: MIC, 29213
How it was run: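 Broth microdilution; endpoint = no macroscopic growth; value = lowest inhibiting concn, μg/mL.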

[3] = test system: E. coli 25922; assay: as above; assay type: cell-based, Escherichia coli; conditions: Escherichia coli; microbroth dilution; control Gram-negative E. coli 25922 strain; read-out: MIC, 25922
How it was run: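 Microbroth dilution was used. MIC, in μg/mL, is the lowest drug concentration preventing macroscopically visible growth under the test conditions.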

[4] = test system: E. coli LZ3111; assay: Antibacterial activity, MIC, quinolone resistant strain (Table 2); assay type: cell-based; conditions: Escherichia coli, LZ3111, read-out: MIC LZ3111
How it was run: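 Strain carries mutations conferring high-level quinolone resistance; tested by microbroth dilution, MIC recorded in μg/mL as lowest concentration preventing visible growth.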

[5] = test system: E. coli ELZ4000; assay: Antibacterial activity, MIC, multi-drug resistant clinical isolate (Table 3); assay type: cell-based; conditions: Escherichia coli, ELZ4000, read-out: MIC ELZ4000
How it was run: (§1)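 Microbroth dilution. Endpoint: absence of macroscopically visible growth. Value = MIC, μg/mL.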

[6] = test system: E. coli ELZ4251; assay: as above; assay type: cell-based; conditions: Escherichia coli
How it was run: as §1

[7] = test system: Acinetobacter baumannii (A. baumannii) BAA747; assay: Antibacterial activity, MIC (Table 4); assay type: cell-based; conditions: A. baumannii BAA747, read-out: MIC, BAA747
How it was run: (§2)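 Values are minimum inhibitory concentrations in μg/mL from broth microdilution, meaning no macroscopically visible growth at that concentration. Resistant MXX isolates are multi-drug resistant clinical strains.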

[8] = test system: Klebsiella pneumoniae (K. pneumoniae) 35657; assay: Antibacterial activity, MIC (Table 4); assay type: cell-based; conditions: K. pneumoniae 35657, read-out: MIC, 35657
How it was run: as §2

[9] = test system: A. baumannii MXX2240; assay: Antibacterial activity, MIC, resistant strain (Table 4); assay type: cell-based; conditions: Acinetobacter baumannii, MXX2240; resistant A. baumannii MMX2240, multi-drug resistant clinical isolate; read-out: MIC, MMX2240
How it was run: as §2

[10] = test system: K. pneumoniae MXX1232; assay: as above; assay type: cell-based; conditions: Klebsiella pneumoniae, MXX1232; resistant K. pneumoniae MMX1232, multi-drug resistant clinical isolate; read-out: MIC, MMX1232
How it was run: as §2

[11] = test system: Pseudomonas aeruginosa (P. aeruginosa) 27853; assay: Antibacterial activity, MIC (Table 5); assay type: cell-based; conditions: P. aeruginosa 27853, read-out: MIC, 27853
How it was run: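 Compounds are serially diluted in broth and inoculated with the organism. Growth is then inspected macroscopically, and the lowest concentration showing none is taken as the MIC (μg/mL).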

[12] = test system: Haemophilus influenzae (H. influenzae) 49247; assay: Antibacterial activity, MIC (Table 6); assay type: cell-based
How it was run: (§3)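 Compounds are serially diluted in microbroth. Bacteria are then grown under the test conditions, and growth is inspected macroscopically. The MIC is recorded in μg/mL as the lowest concentration without visible growth.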

[13] = test system: Moraxella catarrhalis (M. catarrhalis) 25238; assay: Antibacterial activity, MIC (Table 7); assay type: cell-based
How it was run: as §3

[14] = test system: Neisseria meningitidis (N. meningitidis) 13090; assay: Antibacterial activity, MIC (Table 8); assay type: cell-based
How it was run: as §3

Row | SMILES | MIC [1] | MIC [2] | MIC [3] | MIC [4] | MIC [5] | MIC [6] | MIC [7] | MIC [8] | MIC [9] | MIC [10] | MIC [11] | MIC [12] | MIC [13] | MIC [14]
1 | CCc1c(-c2ccc3c(c2)cc(CN2CCC[C@H](NC)C2)n3C)[nH]c(=O)c(C(=O)O)c1O [Cpd 257, (S)-5-ethyl-4-hydroxy-6-(1-methyl-2-((3-(methylamino)piperidin-1-yl)methyl)-1H-indol-5-yl)-2-oxo-1,2-dihydropyridine-3-carboxylic acid] | < 1 µg/mL | 12.5 to 150 µg/mL (≈ 28.5 to 342 µM) | 3.5 to 12.5 µg/mL (≈ 7.98 to 28.5 µM) | 3.5 to 12.5 µg/mL (≈ 7.98 to 28.5 µM) | 12.5 to 150 µg/mL (≈ 28.5 to 342 µM) | 12.5 to 150 µg/mL (≈ 28.5 to 342 µM) | 12.5 to 150 µg/mL (≈ 28.5 to 342 µM) | 3.5 to 12.5 µg/mL (≈ 7.98 to 28.5 µM) | 12.5 to 150 µg/mL (≈ 28.5 to 342 µM) | 12.5 to 150 µg/mL (≈ 28.5 to 342 µM) | 12.5 to 150 µg/mL (≈ 28.5 to 342 µM) | 3.5 to 12.5 µg/mL (≈ 7.98 to 28.5 µM) | 3.5 to 12.5 µg/mL (≈ 7.98 to 28.5 µM) | 1 to 3.5 µg/mL (≈ 2.28 to 7.98 µM)
2 | C#CCNCc1cc2cc(-c3[nH]c(=O)c(C(=O)O)c(O)c3CC)ccc2n1C.Cl [Cpd 277, 5-ethyl-4-hydroxy-6-(1-methyl-2-((prop-2-ynylamino)methyl)-1H-indol-5-yl)-2-oxo-1,2-dihydropyridine-3-carboxylic acid hydrochloride] | < 1 µg/mL | 1 to 3.5 µg/mL | < 1 µg/mL | 1 to 3.5 µg/mL | 12.5 to 150 µg/mL | 3.5 to 12.5 µg/mL | 1 to 3.5 µg/mL | 1 to 3.5 µg/mL | 12.5 to 150 µg/mL | 12.5 to 150 µg/mL | 12.5 to 150 µg/mL | < 1 µg/mL | < 1 µg/mL | < 1 µg/mL
3 | CCc1c(-c2ccc3c(c2)cc(CNCC2CCN(C)CC2)n3C)[nH]c(=O)c(C(=O)O)c1O.Cl.Cl [Cpd 234, 5-ethyl-4-hydroxy-6-(1-methyl-2-((((1-methylpiperidin-4-yl)methyl)amino)methyl)-1H-indol-5-yl)-2-oxo-1,2-dihydropyridine-3-carboxylic acid dihydrochloride] | < 1 µg/mL | 12.5 to 150 µg/mL | 1 to 3.5 µg/mL | 1 to 3.5 µg/mL | 12.5 to 150 µg/mL | 12.5 to 150 µg/mL | 12.5 to 150 µg/mL | 1 to 3.5 µg/mL | 12.5 to 150 µg/mL | 12.5 to 150 µg/mL | 12.5 to 150 µg/mL | 1 to 3.5 µg/mL | 3.5 to 12.5 µg/mL | 1 to 3.5 µg/mL
4 | CCc1c(-c2ccc3c(c2)cc(CN2CC(N)C2)n3C)[nH]c(=O)c(C(=O)O)c1O [Cpd 188, 6-(2-((3-aminoazetidin-1-yl)methyl)-1-methyl-1H-indol-5-yl)-5-ethyl-4-hydroxy-2-oxo-1,2-dihydropyridine-3-carboxylic acid] | < 1 µg/mL | 12.5 to 150 µg/mL (≈ 31.5 to 378 µM) | < 1 µg/mL | 1 to 3.5 µg/mL (≈ 2.52 to 8.83 µM) | 12.5 to 150 µg/mL (≈ 31.5 to 378 µM) | 12.5 to 150 µg/mL (≈ 31.5 to 378 µM) | 12.5 to 150 µg/mL (≈ 31.5 to 378 µM) | 12.5 to 150 µg/mL (≈ 31.5 to 378 µM) | 12.5 to 150 µg/mL (≈ 31.5 to 378 µM) | 12.5 to 150 µg/mL (≈ 31.5 to 378 µM) | 12.5 to 150 µg/mL (≈ 31.5 to 378 µM) | 3.5 to 12.5 µg/mL (≈ 8.83 to 31.5 µM) | 3.5 to 12.5 µg/mL (≈ 8.83 to 31.5 µM) | 3.5 to 12.5 µg/mL (≈ 8.83 to 31.5 µM)
5 | CCc1c(-c2ccc3c(c2)cc(CNCC2CCCN(C)C2)n3C)[nH]c(=O)c(C(=O)O)c1O.Cl.Cl (stereo not drawn) [Cpd 231, 5-ethyl-4-hydroxy-6-(1-methyl-2-(((1-methylpiperidin-3-yl)methylamino)methyl)-1H-indol-5-yl)-2-oxo-1,2-dihydropyridine-3-carboxylic acid dihydrochloride] | < 1 µg/mL | 12.5 to 150 µg/mL | 1 to 3.5 µg/mL | 1 to 3.5 µg/mL | 12.5 to 150 µg/mL | 12.5 to 150 µg/mL | 3.5 to 12.5 µg/mL | 1 to 3.5 µg/mL | 12.5 to 150 µg/mL | 12.5 to 150 µg/mL | 12.5 to 150 µg/mL | 1 to 3.5 µg/mL | 3.5 to 12.5 µg/mL | 1 to 3.5 µg/mL
6 | CCc1c(-c2ccc3c(c2)cc(CN2CCC[C@H](N)C2)n3C)[nH]c(=O)c(C(=O)O)c1O [Cpd 253, (S)-6-(2-((3-aminopiperidin-1-yl)methyl)-1-methyl-1H-indol-5-yl)-5-ethyl-4-hydroxy-2-oxo-1,2-dihydropyridine-3-carboxylic acid] | < 1 µg/mL | 12.5 to 150 µg/mL (≈ 29.4 to 353 µM) | 1 to 3.5 µg/mL (≈ 2.36 to 8.24 µM) | 3.5 to 12.5 µg/mL (≈ 8.24 to 29.4 µM) | 12.5 to 150 µg/mL (≈ 29.4 to 353 µM) | 12.5 to 150 µg/mL (≈ 29.4 to 353 µM) | 12.5 to 150 µg/mL (≈ 29.4 to 353 µM) | 1 to 3.5 µg/mL (≈ 2.36 to 8.24 µM) | 12.5 to 150 µg/mL (≈ 29.4 to 353 µM) | 12.5 to 150 µg/mL (≈ 29.4 to 353 µM) | 12.5 to 150 µg/mL (≈ 29.4 to 353 µM) | 3.5 to 12.5 µg/mL (≈ 8.24 to 29.4 µM) | 3.5 to 12.5 µg/mL (≈ 8.24 to 29.4 µM) | 1 to 3.5 µg/mL (≈ 2.36 to 8.24 µM)
